The supplement of paper PMC10307832

Assays:
Experiment in all cases: relative viability (nuclei count vs DMSO), 5 days (fraction); higher = more cells survive
RERF-LC-KJ = tested on: RERF-LC-KJ
How it was run: (§1)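 Cells from lung cancer lines were seeded into 1536-well plates and, one day later, dosed by pin tool. Treatments were either a single drug or a fixed dose of an anchor drug with five library-drug doses (not always all listed) in √10 steps. After 5 days, nuclei were stained in a one-step fixation (final 0.05% Triton X-100, 1% formaldehyde, 1 ug/ml Hoechst) and counted on 4× images, and relative viability is the treated-to-vehicle nuclei ratio, as the median of duplicate plates.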

SK-LU-1 = tested on: SK-LU-1
How it was run: as §1

EMC-BAC-2 = tested on: EMC-BAC-2
How it was run: as §1

HARA = tested on: HARA
How it was run: as §1

COR-L23 = tested on: COR-L23
How it was run: as §1

HOP-62 = tested on: HOP-62
How it was run: as §1

NCI-H1437 = tested on: NCI-H1437
How it was run: as §1

UMC-11 = tested on: UMC-11
How it was run: as §1

NCI-H596 = tested on: NCI-H596
How it was run: as §1

CAL-12T = tested on: CAL-12T
How it was run: as §1

NCI-H1651 = tested on: NCI-H1651
How it was run: as §1

NCI-H1650 = tested on: NCI-H1650
How it was run: as §1

NCI-H727 = tested on: NCI-H727
How it was run: as §1

PC-3 [JPC-3] = tested on: PC-3 [JPC-3]
How it was run: as §1

NCI-H1734 = tested on: NCI-H1734
How it was run: as §1

NCI-H2347 = tested on: NCI-H2347
How it was run: as §1

NCI-H1563 = tested on: NCI-H1563
How it was run: as §1

NCI-H3122 = tested on: NCI-H3122
How it was run: as §1

NCI-H441 = tested on: NCI-H441
How it was run: as §1

NCI-H1755 = tested on: NCI-H1755
How it was run: as §1

LK-2 = tested on: LK-2
How it was run: as §1

ABC-1 = tested on: ABC-1
How it was run: as §1

HCC-366 = tested on: HCC-366
How it was run: as §1

Cc1cn(-c2cc(NC(=O)c3ccc(C)c(Nc4nccc(-c5cccnc5)n4)c3)cc(C(F)(F)F)c2)cn1 [Nilotinib] + CS(=O)(=O)N1CCN(Cc2cc3nc(-c4cccc5[nH]ncc45)nc(N4CCOCC4)c3s2)CC1 [Pictilisib] (partner 1 µM)
relative viability (RERF-LC-KJ; first compound 0.001 µM): 0.549
relative viability (RERF-LC-KJ; first compound 0.003162 µM): 0.572
relative viability (RERF-LC-KJ; first compound 0.01 µM): 0.533
relative viability (RERF-LC-KJ; first compound 0.03162 µM): 0.591
relative viability (RERF-LC-KJ; first compound 0.1 µM): 0.55
relative viability (SK-LU-1; first compound 0.001 µM): 0.499
relative viability (SK-LU-1; first compound 0.003162 µM): 0.526
relative viability (SK-LU-1; first compound 0.01 µM): 0.563
relative viability (SK-LU-1; first compound 0.03162 µM): 0.366
relative viability (SK-LU-1; first compound 0.1 µM): 0.499
relative viability (EMC-BAC-2; first compound 0.001 µM): 0.528
relative viability (EMC-BAC-2; first compound 0.003162 µM): 0.538
relative viability (EMC-BAC-2; first compound 0.01 µM): 0.606
relative viability (EMC-BAC-2; first compound 0.03162 µM): 0.486
relative viability (EMC-BAC-2; first compound 0.1 µM): 0.479
relative viability (HARA; first compound 0.001 µM): 0.445
relative viability (HARA; first compound 0.003162 µM): 0.307
relative viability (HARA; first compound 0.01 µM): 0.458
relative viability (HARA; first compound 0.03162 µM): 0.197
relative viability (HARA; first compound 0.1 µM): 0.186
relative viability (COR-L23; first compound 0.001 µM): 0.777
relative viability (COR-L23; first compound 0.003162 µM): 1.01
relative viability (COR-L23; first compound 0.01 µM): 1.4
relative viability (COR-L23; first compound 0.03162 µM): 0.901
relative viability (COR-L23; first compound 0.1 µM): 0.607
relative viability (HOP-62; first compound 0.001 µM): 0.539
relative viability (HOP-62; first compound 0.003162 µM): 0.902
relative viability (HOP-62; first compound 0.01 µM): 0.587
relative viability (HOP-62; first compound 0.03162 µM): 0.63
relative viability (HOP-62; first compound 0.1 µM): 0.401
relative viability (NCI-H1437; first compound 0.001 µM): 0.381
relative viability (NCI-H1437; first compound 0.003162 µM): 0.414
relative viability (NCI-H1437; first compound 0.01 µM): 0.373
relative viability (NCI-H1437; first compound 0.03162 µM): 0.47
relative viability (NCI-H1437; first compound 0.1 µM): 0.44
relative viability (UMC-11; first compound 0.001 µM): 0.801
relative viability (UMC-11; first compound 0.003162 µM): 1.03
relative viability (UMC-11; first compound 0.01 µM): 0.972
relative viability (UMC-11; first compound 0.1 µM): 0.287
relative viability (NCI-H596; first compound 0.001 µM): 0.352
relative viability (NCI-H596; first compound 0.003162 µM): 0.41
relative viability (NCI-H596; first compound 0.01 µM): 0.386
relative viability (NCI-H596; first compound 0.03162 µM): 0.393
relative viability (NCI-H596; first compound 0.1 µM): 0.366
relative viability (CAL-12T; first compound 0.001 µM): 0.45
relative viability (CAL-12T; first compound 0.01 µM): 0.354
relative viability (CAL-12T; first compound 0.03162 µM): 0.307
relative viability (CAL-12T; first compound 0.1 µM): 0.398
relative viability (NCI-H1651; first compound 0.001 µM): 0.576
relative viability (NCI-H1651; first compound 0.003162 µM): 0.619
relative viability (NCI-H1651; first compound 0.01 µM): 0.638
relative viability (NCI-H1651; first compound 0.03162 µM): 0.568
relative viability (NCI-H1651; first compound 0.1 µM): 0.308
relative viability (NCI-H1650; first compound 0.001 µM): 0.534
relative viability (NCI-H1650; first compound 0.003162 µM): 0.709
relative viability (NCI-H1650; first compound 0.01 µM): 0.562
relative viability (NCI-H1650; first compound 0.03162 µM): 0.546
relative viability (NCI-H1650; first compound 0.1 µM): 0.288
relative viability (NCI-H727; first compound 0.001 µM): 0.382
relative viability (NCI-H727; first compound 0.01 µM): 0.447
relative viability (NCI-H727; first compound 0.1 µM): 0.264
relative viability (PC-3 [JPC-3]; first compound 0.001 µM): 0.791
relative viability (PC-3 [JPC-3]; first compound 0.003162 µM): 0.88
relative viability (PC-3 [JPC-3]; first compound 0.01 µM): 0.833
relative viability (PC-3 [JPC-3]; first compound 0.03162 µM): 0.747
relative viability (PC-3 [JPC-3]; first compound 0.1 µM): 0.342
relative viability (NCI-H1734; first compound 0.001 µM): 0.445
relative viability (NCI-H1734; first compound 0.003162 µM): 0.48
relative viability (NCI-H1734; first compound 0.01 µM): 0.447
relative viability (NCI-H1734; first compound 0.03162 µM): 0.384
relative viability (NCI-H1734; first compound 0.1 µM): 0.236
relative viability (NCI-H2347; first compound 0.001 µM): 0.644
relative viability (NCI-H2347; first compound 0.003162 µM): 0.679
relative viability (NCI-H2347; first compound 0.01 µM): 0.717
relative viability (NCI-H2347; first compound 0.03162 µM): 0.635
relative viability (NCI-H2347; first compound 0.1 µM): 0.401
relative viability (NCI-H1563; first compound 0.001 µM): 0.553
relative viability (NCI-H1563; first compound 0.003162 µM): 0.608
relative viability (NCI-H1563; first compound 0.01 µM): 0.649
relative viability (NCI-H1563; first compound 0.03162 µM): 0.602
relative viability (NCI-H1563; first compound 0.1 µM): 0.46
relative viability (NCI-H3122; first compound 0.001 µM): 0.666
relative viability (NCI-H3122; first compound 0.003162 µM): 0.846
relative viability (NCI-H3122; first compound 0.01 µM): 0.808
relative viability (NCI-H3122; first compound 0.03162 µM): 0.473
relative viability (NCI-H3122; first compound 0.1 µM): 0.436
relative viability (NCI-H441; first compound 0.001 µM): 0.371
relative viability (NCI-H441; first compound 0.003162 µM): 0.576
relative viability (NCI-H441; first compound 0.01 µM): 0.532
relative viability (NCI-H441; first compound 0.1 µM): 0.305
relative viability (NCI-H1755; first compound 0.001 µM): 0.445
relative viability (NCI-H1755; first compound 0.003162 µM): 0.466
relative viability (NCI-H1755; first compound 0.01 µM): 0.411
relative viability (NCI-H1755; first compound 0.03162 µM): 0.34
relative viability (NCI-H1755; first compound 0.1 µM): 0.261
relative viability (LK-2; first compound 0.001 µM): 0.614
relative viability (LK-2; first compound 0.003162 µM): 0.451
relative viability (LK-2; first compound 0.01 µM): 0.577
relative viability (LK-2; first compound 0.03162 µM): 0.594
relative viability (LK-2; first compound 0.1 µM): 0.608
relative viability (ABC-1; first compound 0.001 µM): 0.758
relative viability (ABC-1; first compound 0.003162 µM): 0.697
relative viability (ABC-1; first compound 0.01 µM): 0.788
relative viability (ABC-1; first compound 0.03162 µM): 0.619
relative viability (ABC-1; first compound 0.1 µM): 0.346
relative viability (HCC-366; first compound 0.001 µM): 0.161
relative viability (HCC-366; first compound 0.01 µM): 0.133
relative viability (HCC-366; first compound 0.03162 µM): 0.111
relative viability (HCC-366; first compound 0.1 µM): 0.137
